Our source for the AC50, IC50 and EC50 values is ChEMBL document CHEMBL1201862, “PubChem BioAssay data set” (2004).

For orientation: AC50 means the concentration at which the activity in the assay is half-maximal. In general, IC50 refers to the concentration that inhibits the measured activity by half. The EC50 is the concentration at which the effect is half-maximal.

Assay [1] concerns the target T1, Replicative DNA helicase DnaB (Mycobacterium tuberculosis, UniProt P9WMR3).
T1 sequence (P9WMR3 whole entry): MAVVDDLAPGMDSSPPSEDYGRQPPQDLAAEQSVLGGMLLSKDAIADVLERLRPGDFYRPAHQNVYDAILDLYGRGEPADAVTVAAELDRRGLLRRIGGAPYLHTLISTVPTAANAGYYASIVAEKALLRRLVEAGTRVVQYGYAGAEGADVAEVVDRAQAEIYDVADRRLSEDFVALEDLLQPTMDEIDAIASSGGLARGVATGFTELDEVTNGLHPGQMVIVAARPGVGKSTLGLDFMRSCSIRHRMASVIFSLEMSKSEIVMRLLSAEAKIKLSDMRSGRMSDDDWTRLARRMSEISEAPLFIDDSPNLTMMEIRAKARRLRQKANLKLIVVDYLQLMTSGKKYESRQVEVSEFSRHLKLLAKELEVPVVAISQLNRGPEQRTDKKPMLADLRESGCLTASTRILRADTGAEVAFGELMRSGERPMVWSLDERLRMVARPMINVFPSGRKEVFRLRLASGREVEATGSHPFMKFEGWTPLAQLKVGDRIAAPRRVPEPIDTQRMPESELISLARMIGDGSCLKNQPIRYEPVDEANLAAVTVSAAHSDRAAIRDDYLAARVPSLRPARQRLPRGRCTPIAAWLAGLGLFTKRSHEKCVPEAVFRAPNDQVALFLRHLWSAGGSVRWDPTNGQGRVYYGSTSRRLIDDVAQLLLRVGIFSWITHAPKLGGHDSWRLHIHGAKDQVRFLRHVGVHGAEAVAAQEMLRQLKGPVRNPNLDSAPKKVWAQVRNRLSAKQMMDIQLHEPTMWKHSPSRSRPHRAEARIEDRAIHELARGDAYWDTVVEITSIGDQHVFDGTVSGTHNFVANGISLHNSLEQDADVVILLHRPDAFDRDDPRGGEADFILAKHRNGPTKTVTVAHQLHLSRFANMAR
The assay can be described thus: DnaB intein splicing inhibitors, dose response, biochemical, cell-free fluorescence (AID 449749). It is filed as functional.

Assay [2] addresses T2, Alkaline phosphatase, tissue-nonspecific isozyme (Homo sapiens, UniProt P05186).
T2 sequence (P05186 whole entry): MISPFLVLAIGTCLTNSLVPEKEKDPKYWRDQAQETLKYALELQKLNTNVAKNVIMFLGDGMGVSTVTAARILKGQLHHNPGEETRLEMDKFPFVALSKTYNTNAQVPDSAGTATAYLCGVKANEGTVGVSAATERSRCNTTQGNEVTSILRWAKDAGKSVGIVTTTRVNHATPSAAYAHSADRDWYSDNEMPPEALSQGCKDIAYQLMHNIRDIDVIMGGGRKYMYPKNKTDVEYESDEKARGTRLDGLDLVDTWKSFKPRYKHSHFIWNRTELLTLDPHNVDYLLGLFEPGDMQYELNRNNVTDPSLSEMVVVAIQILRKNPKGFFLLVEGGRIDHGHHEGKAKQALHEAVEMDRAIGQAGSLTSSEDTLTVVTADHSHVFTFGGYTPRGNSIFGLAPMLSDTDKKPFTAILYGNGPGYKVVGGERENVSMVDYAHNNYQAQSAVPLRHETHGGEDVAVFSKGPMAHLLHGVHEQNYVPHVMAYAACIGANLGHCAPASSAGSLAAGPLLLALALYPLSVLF
The assay can be described thus: TNAP enzyme inhibition by screening hits, dose response, selectivity assay for mouse IAP inhibitor project, biochemical, human TNAP, uHTS hits (AID 488906). It is filed as functional.

Assay [3] concerns the target Intestinal-type alkaline phosphatase (Mus musculus, UniProt P24822). Description: PubChem AID 488785. It is filed as functional.
Assay [4] addresses Intestinal-type alkaline phosphatase (Homo sapiens, UniProt P09923). The assay can be described thus: activation of human intestinal alkaline phosphatase – biochemical, dose response (AID 488873). It is filed as functional.
The target of the next assay is Procathepsin L (Homo sapiens, UniProt P07711).
Assay [5] deals with T3, Rac GTPase-activating protein 1 (Homo sapiens, UniProt Q9H0H5).
T3 sequence (Q9H0H5 whole entry): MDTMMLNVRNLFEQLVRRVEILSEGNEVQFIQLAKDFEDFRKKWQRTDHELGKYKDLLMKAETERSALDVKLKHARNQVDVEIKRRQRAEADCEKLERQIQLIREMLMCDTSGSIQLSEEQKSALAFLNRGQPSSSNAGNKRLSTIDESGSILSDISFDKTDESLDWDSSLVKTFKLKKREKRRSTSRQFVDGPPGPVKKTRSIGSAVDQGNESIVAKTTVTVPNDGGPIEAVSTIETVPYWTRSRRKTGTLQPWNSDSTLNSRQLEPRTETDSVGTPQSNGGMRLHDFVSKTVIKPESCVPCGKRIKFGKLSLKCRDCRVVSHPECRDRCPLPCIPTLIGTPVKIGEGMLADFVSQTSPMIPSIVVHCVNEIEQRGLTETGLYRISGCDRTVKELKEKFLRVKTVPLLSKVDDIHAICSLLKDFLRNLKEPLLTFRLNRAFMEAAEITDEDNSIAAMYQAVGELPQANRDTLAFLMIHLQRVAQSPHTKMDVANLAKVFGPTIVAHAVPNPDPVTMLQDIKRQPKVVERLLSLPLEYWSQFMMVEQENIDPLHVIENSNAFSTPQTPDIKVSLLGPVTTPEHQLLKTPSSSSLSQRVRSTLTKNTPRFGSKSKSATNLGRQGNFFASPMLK
The assay can be described thus: MgcRacGAP GTPase-activating activity inhibitors, confirmation, biochemical, ADP Hunter fluorescence, primary and confirmatory (AID 624330). It is filed as functional.

The next assay deals with T4, Protein RecA (Mycobacterium tuberculosis, UniProt P9WHJ3).
T4 sequence (P9WHJ3 whole entry): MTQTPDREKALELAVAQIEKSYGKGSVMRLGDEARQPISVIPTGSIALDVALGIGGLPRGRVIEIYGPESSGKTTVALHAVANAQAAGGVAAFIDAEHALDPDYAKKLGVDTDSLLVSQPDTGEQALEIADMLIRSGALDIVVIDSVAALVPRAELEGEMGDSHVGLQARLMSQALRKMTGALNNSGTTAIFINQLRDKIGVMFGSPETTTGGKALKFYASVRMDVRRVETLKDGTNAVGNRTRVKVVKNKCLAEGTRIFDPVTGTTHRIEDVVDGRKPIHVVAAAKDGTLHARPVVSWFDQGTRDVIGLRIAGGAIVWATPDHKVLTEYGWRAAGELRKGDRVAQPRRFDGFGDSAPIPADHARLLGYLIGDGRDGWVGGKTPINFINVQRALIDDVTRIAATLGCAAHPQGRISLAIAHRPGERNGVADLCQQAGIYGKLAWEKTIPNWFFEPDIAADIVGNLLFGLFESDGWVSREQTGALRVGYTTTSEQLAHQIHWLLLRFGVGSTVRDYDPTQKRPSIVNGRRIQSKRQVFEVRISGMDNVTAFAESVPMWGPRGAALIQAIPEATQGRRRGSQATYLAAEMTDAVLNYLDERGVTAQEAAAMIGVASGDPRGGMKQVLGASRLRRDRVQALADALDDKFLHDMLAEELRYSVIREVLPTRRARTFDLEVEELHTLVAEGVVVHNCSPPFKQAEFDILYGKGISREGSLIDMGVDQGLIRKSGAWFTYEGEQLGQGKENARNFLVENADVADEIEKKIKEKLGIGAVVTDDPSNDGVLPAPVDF
Description: Fluorescence Cell-Free Homogeneous Dose Retest to Identify Inhibitors of RecA-Intein Splicing Activity. [Related pubchem assays (depositor defined):AID2097, AID2223, AID489010, AID492950]. It is filed as functional.

The next assay has as its target T5, Aspartyl aminopeptidase (Plasmodium falciparum 3D7, UniProt Q8I2J3).
T5 sequence (Q8I2J3 whole entry): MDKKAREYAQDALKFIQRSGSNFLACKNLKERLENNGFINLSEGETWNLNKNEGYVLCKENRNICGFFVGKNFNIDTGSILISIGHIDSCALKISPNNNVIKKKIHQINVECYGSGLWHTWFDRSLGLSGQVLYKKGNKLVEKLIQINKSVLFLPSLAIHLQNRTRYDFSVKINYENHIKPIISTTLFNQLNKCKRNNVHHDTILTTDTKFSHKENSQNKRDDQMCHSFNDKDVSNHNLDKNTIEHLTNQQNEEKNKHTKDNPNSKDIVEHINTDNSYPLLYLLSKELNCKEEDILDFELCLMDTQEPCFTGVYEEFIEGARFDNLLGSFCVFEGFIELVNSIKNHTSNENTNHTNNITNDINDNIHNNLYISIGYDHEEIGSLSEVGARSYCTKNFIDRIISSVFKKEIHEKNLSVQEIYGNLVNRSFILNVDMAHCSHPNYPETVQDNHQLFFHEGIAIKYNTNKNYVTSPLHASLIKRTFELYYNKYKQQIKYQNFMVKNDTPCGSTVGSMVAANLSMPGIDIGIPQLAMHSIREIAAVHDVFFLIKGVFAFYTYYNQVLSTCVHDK

The target of assay [6] is T6, Tyrosine-protein phosphatase non-receptor type 7 (Homo sapiens, UniProt P35236).
T6 sequence (P35236 whole entry): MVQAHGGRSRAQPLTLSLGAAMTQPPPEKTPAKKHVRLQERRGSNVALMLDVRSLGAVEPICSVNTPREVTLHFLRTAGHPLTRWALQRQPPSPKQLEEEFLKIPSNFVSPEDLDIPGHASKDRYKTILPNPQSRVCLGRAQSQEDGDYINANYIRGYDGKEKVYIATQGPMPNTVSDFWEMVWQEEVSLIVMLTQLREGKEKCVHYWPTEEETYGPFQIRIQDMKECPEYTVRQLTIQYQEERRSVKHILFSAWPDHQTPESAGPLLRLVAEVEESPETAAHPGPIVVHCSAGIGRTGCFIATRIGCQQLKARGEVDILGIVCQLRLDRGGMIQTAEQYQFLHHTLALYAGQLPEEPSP
The assay can be described thus: redox-dependent HePTP inhibition, mechanism study, biochemical, fluorescence (AID 2068). It is filed as functional.

The target of assay [7] is DNA dC->dU-editing enzyme APOBEC-3G (Homo sapiens, UniProt Q9HC16). It is filed as functional.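 Further: Dose-response counterscreen measuring inhibition of APOBEC3G DNA deaminase activity, run while confirming APOBEC3A inhibitors.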
Assay [8] deals with DNA dC->dU-editing enzyme APOBEC-3A (Homo sapiens, UniProt P31941). The assay can be described thus: Dose Response confirmation of small molecule APOBEC3A DNA Deaminase Inhibitors via a fluorescence-based single-stranded DNA deaminase assay. [Related pubchem assays (depositor defined):AID493011, AID493024]. It is filed as functional.

The source made the active and inactive calls. Where only a bound is given, the exact number is not on record here.

Sequence of DNA dC->dU-editing enzyme APOBEC-3A (P31941 whole entry): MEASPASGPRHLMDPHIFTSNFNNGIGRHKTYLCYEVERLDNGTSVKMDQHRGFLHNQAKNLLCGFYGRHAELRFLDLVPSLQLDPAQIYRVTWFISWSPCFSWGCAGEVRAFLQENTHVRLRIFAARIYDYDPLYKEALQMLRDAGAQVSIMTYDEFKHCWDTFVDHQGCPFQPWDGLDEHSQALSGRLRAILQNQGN
Sequence of DNA dC->dU-editing enzyme APOBEC-3G (Q9HC16 whole entry): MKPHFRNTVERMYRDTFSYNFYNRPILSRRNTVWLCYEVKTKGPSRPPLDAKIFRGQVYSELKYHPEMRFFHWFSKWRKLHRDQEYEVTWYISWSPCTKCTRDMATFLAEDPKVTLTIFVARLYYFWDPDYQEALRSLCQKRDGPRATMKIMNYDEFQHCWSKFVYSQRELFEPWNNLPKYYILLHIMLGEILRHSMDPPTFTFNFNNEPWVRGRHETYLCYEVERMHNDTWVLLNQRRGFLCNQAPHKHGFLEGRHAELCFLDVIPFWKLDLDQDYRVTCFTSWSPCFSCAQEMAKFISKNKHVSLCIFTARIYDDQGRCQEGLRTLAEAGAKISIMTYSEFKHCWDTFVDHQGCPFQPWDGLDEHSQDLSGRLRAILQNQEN
Sequence of Procathepsin L (P07711 whole entry): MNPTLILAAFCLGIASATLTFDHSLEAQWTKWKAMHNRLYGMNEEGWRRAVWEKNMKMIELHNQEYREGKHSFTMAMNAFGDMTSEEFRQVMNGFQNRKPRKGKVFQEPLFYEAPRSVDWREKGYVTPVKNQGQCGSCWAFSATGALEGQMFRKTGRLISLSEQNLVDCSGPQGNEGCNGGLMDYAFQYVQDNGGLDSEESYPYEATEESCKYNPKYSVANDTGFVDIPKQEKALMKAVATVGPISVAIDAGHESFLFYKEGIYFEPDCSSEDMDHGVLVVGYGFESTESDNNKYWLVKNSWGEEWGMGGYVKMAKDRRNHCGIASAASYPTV
Sequence of Intestinal-type alkaline phosphatase (Mus musculus, UniProt P24822) (P24822 whole entry): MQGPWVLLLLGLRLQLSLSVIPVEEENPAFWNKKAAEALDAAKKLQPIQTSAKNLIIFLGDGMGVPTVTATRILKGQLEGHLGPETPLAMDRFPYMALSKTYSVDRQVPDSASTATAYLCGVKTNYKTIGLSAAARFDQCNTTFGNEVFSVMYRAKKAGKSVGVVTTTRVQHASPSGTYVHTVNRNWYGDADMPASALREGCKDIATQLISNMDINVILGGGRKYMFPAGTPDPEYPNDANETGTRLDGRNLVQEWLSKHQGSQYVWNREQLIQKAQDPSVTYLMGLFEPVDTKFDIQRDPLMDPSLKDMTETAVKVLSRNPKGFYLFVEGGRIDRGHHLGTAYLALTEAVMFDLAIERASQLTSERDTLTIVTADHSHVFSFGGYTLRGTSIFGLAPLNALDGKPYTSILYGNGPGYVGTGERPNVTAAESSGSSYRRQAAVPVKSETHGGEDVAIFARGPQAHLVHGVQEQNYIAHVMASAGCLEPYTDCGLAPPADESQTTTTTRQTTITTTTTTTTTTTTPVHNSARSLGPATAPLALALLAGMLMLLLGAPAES
Sequence of Intestinal-type alkaline phosphatase (Homo sapiens, UniProt P09923) (P09923 whole entry): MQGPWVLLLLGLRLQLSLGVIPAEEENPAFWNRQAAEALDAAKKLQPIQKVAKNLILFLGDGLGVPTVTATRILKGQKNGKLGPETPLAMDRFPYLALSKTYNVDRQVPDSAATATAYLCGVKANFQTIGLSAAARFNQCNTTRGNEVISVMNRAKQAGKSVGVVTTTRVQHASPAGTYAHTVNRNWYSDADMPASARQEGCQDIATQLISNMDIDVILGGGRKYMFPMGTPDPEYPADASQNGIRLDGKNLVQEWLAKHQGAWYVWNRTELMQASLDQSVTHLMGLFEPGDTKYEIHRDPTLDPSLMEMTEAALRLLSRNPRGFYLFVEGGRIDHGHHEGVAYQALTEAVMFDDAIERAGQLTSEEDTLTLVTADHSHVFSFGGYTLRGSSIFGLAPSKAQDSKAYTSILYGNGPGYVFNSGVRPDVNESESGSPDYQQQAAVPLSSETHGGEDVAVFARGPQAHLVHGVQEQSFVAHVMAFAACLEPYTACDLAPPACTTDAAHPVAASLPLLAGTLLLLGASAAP

For the compound `Oc1cc(O)c2c(c1)O[C@H](c1ccc(O)c(O)c1)[C@H](O)C2` [(-)-EPICATECHIN], in assay [1], the AC50 was > 380 µM (inactive). The IC50 was 0.407 µM (active) in assay [2]; 1.36 µM (active) in [3]; > 59.6 µM (not active) against Procathepsin L; 206 µM (active) in [5]; 1.38 µM (active) on Aspartyl aminopeptidase. In addition, the EC50 is > 100 µM (inactive) in [4] and > 380 µM (inconclusive) on Protein RecA.
With `O=C(NCc1ccc2c(c1)OCO2)Nc1ccc2nc(-c3ccco3)c(-c3ccco3)nc2c1`, the IC50 in assay [6] is 2.15 µM (active).
As for `CCC(CO)(C(=O)OC1C[N+]2(C)CCC1CC2)c1ccccc1` (stereo not drawn), the IC50 was 2.09 µM (active) in assay [7] and 2.25 µM (active) in assay [8].
In the case of `CCn1c(C)[n+](CC)c2cc(S(=O)(=O)NC)ccc21`, the IC50 in [7] was 17.5 µM (active); in assay [8], 6.81 µM (active).
